Converted amounts (≈) assume the structure as drawn.
Legend:
[1] = test system: herpes simplex virus type 1 (HSV-1); design: method as in PMID 19892441; details: endpoint titration (EPTT); cited from earlier work
[2] = test system: A/California/07/09 ((A)H1N1pdm09) viral strain; format: cell-based, influenza virus; details: A549, therapeutic scheme, 24 h after stimulation, working concentration
[3] = test system: A549 cell culture; assay: Cytotoxicity, colorimetric MTT assay; format: cell-based, human
Method: The cytotoxicity of compounds (I–V) was assessed on A549 cell culture using a colorimetric MTT assay. A549 cells were incubated for 24 h at 37 °C, 5% CO2 with solutions of the studied compounds at various concentrations. Next, the cell monolayer was washed, and MTT solution was added in a volume of 0.1 mL at a concentration of […]. After 1 h of MTT contact with the cells, the wells were washed, and the formed formazan crystals were dissolved in 0.1 mL of DMSO. The results were recorded at 560 nm on a CLARIOstar Plus plate photometer (BMG LABTECH, Ortenberg, Germany). The IC50 was calculated using GraphPad Prism 6.0.

[4] = test system: Candida tropicalis; assay: Disco-diffuse method, fungicidal activity; format: cell-based; details: Candida tropicalis, 48 h at 32 °C, read-out: The Zone of Growth Inhibition; for zone of inhibition at 1000 µg/mL: compound concentration 1 mg/mL; for zone of inhibition at 5000 µg/mL: compound concentration 5 mg/mL; for zone of inhibition at 10000 µg/mL: compound concentration 10 mg/mL; for zone of inhibition at 25000 µg/mL: compound concentration 25 mg/mL; for zone of inhibition at 50000 µg/mL: compound concentration 50 mg/mL
Method: (§1) The determination of compounds (I, IV, VI–XI) effect concerning microorganisms was carried out using test strains of Escherichia coli, Bacillus subtilis, and Candida tropicalis. They are not only natural inhabitants of natural biocenoses but also a part of human microbiocenosis. Used microorganisms of bacteria were selected as representatives of the Gram-positive and Gram-negative human microbiota. The antibacterial activity of compounds (I, IV, VI–XI) was studied by the disco-diffuse method. The strain culture was transferred sterile from the mown agar into test tubes with 5 mL of nutrient medium to obtain a “night culture” 12–15 h before the experiment. Beef-extract agar (BEA) was used as a nutrient medium for the development of bacterial cells, and Sabouraud’s medium was used for yeast. Bacterial cultures were incubated in a thermostat at 37 °C, and yeast cultures at 32 °C. The melted BEA was poured sterile into Petri dishes (diameter 90 mm) and evenly distributed over the bottom of the dish, covered with a lid, and left on the table until it solidified completely. Next, the dishes with BEA were inoculated with a “lawn” by introducing a strain culture (suspension titer −1–2 × 10^8 CFU/mL) in an amount of 500 µL and evenly distributing it with a sterile spatula. The dishes were left for 60–90 min to dry the culture. Compounds (I, IV, VI–XI) were previously dissolved, and the sequential dilutions were applied to disks. Dimethyl sulfoxide (DMSO) was used as a solvent for the DAA. Water was used as a solvent for their potassium salts. […] This disk was impregnated with a solution of the test compound amounting to 100 μL and incubated in the dark for 24 h at 37 °C (Escherichia coli and Bacillus subtilis) and 48 h at 32 °C (Candida tropicalis). The solution diffuses, forming a concentration gradient of the test compound around the disc. After the incubation period, the inhibition zone or stimulation of microbial growth around the disk was measured in the experimental and control samples. A conclusion was made about the degree (bactericidal) toxicity of compounds. Solvent-treated disks (DMSO) were used as controls. The experiments were performed three times.

[5] = test system: Escherichia coli; assay: Disco-diffuse method, antibacterial activity; format: cell-based; details: for zone of inhibition at 1000 µg/mL: compound concentration 1 mg/mL; for zone of inhibition at 5000 µg/mL: compound concentration 5 mg/mL; for zone of inhibition at 10000 µg/mL: compound concentration 10 mg/mL; for zone of inhibition at 25000 µg/mL: compound concentration 25 mg/mL; for MIC: from disc diffusion, 1-50 mg/mL, read-out: minimum inhibitory concentration
Method: as §1

[6] = test system: Bacillus subtilis; assay: Disco-diffuse method, antibacterial activity; format: cell-based; details: for zone of inhibition at 1000 µg/mL: compound concentration 1 mg/mL; for zone of inhibition at 5000 µg/mL: compound concentration 5 mg/mL; for zone of inhibition at 10000 µg/mL: compound concentration 10 mg/mL; for zone of inhibition at 25000 µg/mL: compound concentration 25 mg/mL; for MIC: from disc diffusion, 1-50 mg/mL, read-out: minimum inhibitory concentration
Method: as §1

[7] = Escherichia coli, 24 h at 37 °C, read-out: The Zone of Growth Inhibition
[8] = Bacillus subtilis, 24 h at 37 °C, read-out: The Zone of Growth Inhibition
[9] = compound concentration 50 mg/mL, 24 h at 37 °C

Row | SMILES | zone of inhibition at 1000 µg/mL [4] [mm] | zone of inhibition at 5000 µg/mL [4] [mm] | zone of inhibition at 10000 µg/mL [4] [mm] | zone of inhibition at 25000 µg/mL [4] [mm] | zone of inhibition at 50000 µg/mL [4] [mm] | zone of inhibition at 1000 µg/mL [5, 7] [mm] | zone of inhibition at 5000 µg/mL [5, 7] [mm] | zone of inhibition at 10000 µg/mL [5, 7] [mm] | zone of inhibition at 25000 µg/mL [5, 7] [mm] | MIC ([5]; Escherichia coli) [µg/mL] | zone of inhibition at 1000 µg/mL [6, 8] [mm] | zone of inhibition at 5000 µg/mL [6, 8] [mm] | zone of inhibition at 10000 µg/mL [6, 8] [mm] | zone of inhibition at 25000 µg/mL [6, 8] [mm] | MIC ([6]; Bacillus subtilis) [µg/mL] | further results
1 | CC(=O)OC[C@]1(C)CCC[C@]2(C)c3ccc(C(C)C)cc3CC[C@@H]12 [dehydroabietinol acetate] | – | – | – | – | – | – | – | – | – | – | – | – | – | – | – | Concentration at which HSV-1 replication was reduced [1]: below 100 mg/mL
2 | CC(C)c1cc2c(cc1Br)C1(C)CCCC(C)(C(=O)[O-])C1CC2.[K+] (stereo not drawn) [III, Potassium 12-bromodehydroabietate] | – | – | – | – | – | – | – | – | – | – | – | – | – | – | – | Content of viral protein NP inside the cells (ELISA) [2]: decrease in the content of the viral protein NP inside the cells; Cytotoxicity (in words) ([3]; A549, MTT assay): highest cytotoxicity; IC50 ([3]; Homo sapiens, A549, 24 h, read-out: Determined IC50): 140 µg/mL; Decrease in viable cells ([3]; at the working concentrations used to assess antiviral activity): 50%
3 | CC(C)C1=CC2=CCC3C(C)(CO)CCCC3(C)C2CC1 (stereo not drawn) [XI, Abietinol] | 0 | 1 ± 0.1 | 2 ± 0.1 | 4 ± 0.25 | 4.2 ± 0.15 | 0 | 1 ± 0.1 | 1 ± 0.1 | 3.5 ± 0.21 | 5000 (≈ 17.3 mM) | 1 ± 0.15 | 2.2 ± 0.05 | 2 ± 0.15 | 4 ± 0.12 | 1000 (≈ 3.47 mM) | zone of inhibition at 50000 µg/mL ([5]; Escherichia coli, compound concentration 50 mg/mL, 24 h at 37 °C, read-out: The Zone of Growth Inhibition): 5 ± 0.14 mm; zone of inhibition at 50000 µg/mL ([6]; Bacillus subtilis, compound concentration 50 mg/mL, 24 h at 37 °C, read-out: The Zone of Growth Inhibition): 4 ± 0.09 mm
4 | CC(C)c1cc2c(cc1Br)C1(C)CCCC(C)(C(=O)O)C1CC2 (stereo not drawn) [X, 12-bromodehydroabietic acid] | 0 | 0 | 0 | 1.1 ± 0.24 | 1.9 ± 0.16 | 0.9 ± 0.1 | 2 ± 0.07 | 7.6 ± 0.03 | 4.6 ± 0.05 | 1000 (≈ 2.64 mM) | 3.1 ± 0.25 | 9.5 ± 0.05 | 9.7 ± 0.04 | 10.5 ± 0.03 | 1000 (≈ 2.64 mM) | The Zone of Growth Inhibition [5, 9]: Does not diff; The Zone of Growth Inhibition [6, 9]: Does not diff

— article PMC8270270, “Rosin Derivatives as a Platform for the Antiviral Drug Design” (Molecules, 2021)
